In US8889411B2, “Modulation of stem and progenitor cell differentiation, assays, and uses thereof” (Anthrogenesis Corporation, priority 2002, dated 2014):

Tests used:
[1] = test system: Purified human cord blood CD34+ cells; assay: Monocyte production: CD34/CD14 staining of cord blood CD34+ cells cultured 14 days with cytokines; type: cell-based
Experimental: Purified human cord blood CD34+ cells (greater than 90% CD34+) were cultured in 20% FCS IMDM medium supplemented with cytokines (IL3, IL6, G-CSF, KL and Epo) at 4×10^4 cells/ml for 14 days at 37° C. in a humidified 5% CO2 incubator. The experimental groups consisted of a group in which (i) no DMSO or chemical compounds were added (“None”), (ii) DMSO only, (iii) Thalidomide dissolved in DMSO, (iv) ACTIMID™ dissolved in DMSO, and (v) REVIMID™ dissolved in DMSO. Aliquots of cells were harvested and stained with CD34-PE conjugated monoclonal antibody and CD14-FITC conjugated monoclonal antibody.

[2] = test system: adult SJL/L mice with bone marrow ablation by lethal irradiation; assay: Transplantation of ACTIMID-pretreated nucleated cells into lethally irradiated mice; type: in vivo, mouse; details: for % Starting Body Weight at 50 days: irradiated mice
Experimental: Placental nucleated cells (PLNC), umbilical cord blood nucleated cells (UCBNC) and bone marrow cells (BMNC) were obtained from human donors. PLNC and UCBNC were obtained from placenta and umbilical cord using methods described in Section 5.4 above.
The cells were pretreated by incubation in DMEM supplemented with 2% human CB serum with 10 µg/ml ACTIMID™ for 24 hours. Cells were then washed, resuspended in autologous plasma, and administered intravenously to recipient adult SJL/L mice (Jackson Laboratories) that had bone marrow ablation produced by lethal irradiation (900cGy) according to standard methods. Such irradiation is better than 90% lethal by 50 days post-irradiation (Ende et al., 2001, Life Sciences 69(13):1531-1539; Chen and Ende, 2000, J. Med. 31: 21-30; Ende et al., 2000, Life Sci. 67(1):53-9; Ende and Chen, 2000, Am. J. Clin. Pathol. 114: 89).

[3] = test system: CD1a+CD14− and CD1a−CD14+ cells (DC progenitors); assay: Detection of apoptosis (Annexin V-FITC / propidium iodide) in isolated DC progenitors; type: cell-based, human; details: 1 μM; 2 days; GM-CSF and TNF-α
Experimental: Detection of apoptosis: Phosphatidyl serine exposure was determined using Annexin V-FITC staining in combination with propidium iodide (BD Pharmingen apoptosis detection kit I) following manufacturer instruction.
Block in DC generation is not mediated by specific killing of the DC progenitors: To determine if the decrease in DC progenitors was mediated by specific killing, CD34^+ progenitor cells were cultured for a period of 6 days in the presence of SCF, Flt-3L, GM-CSF and TNF-α. At day 6, CD1a^+CD14^− and […] cells (DC progenitors) were isolated by magnetic cell sorting (Miltenyi). Purified populations were cultured for an additional 2 days in the presence of GM-CSF and TNF-α with or without ACTIMID™ (1 μM).

Structure (SMILES): Nc1cccc2c1C(=O)N(C1CCC(=O)NC1=O)C2=O (stereo not drawn) [ACTIMID™, 4-(Amino)-2-(2,6-dioxo(3-piperidyl))-isoindoline-1,3-dione]
- percentage of monocyte lineage cells ([1]; 5 μg/ml, compared to control, FIG. 13): increase
- percentage of CD34+ cells of the total cells ([1]; 14 days, IL3, IL6, G-CSF, KL and Epo, compound dissolved in DMSO): 18.7%
- production of monocytes (CD14+ cells) ([1]; 14 days, relative to DMSO-treated group): overcome
- survival of transplanted PLNC, UCBNC and BMNC ([2]; ACTIMID pre-treatment of cells): increases the survival
- # of Animals Dead at 50 days ([2]; PLNC 5 × 10^6 + ACTIMID pre-treatment (10 g/ml, 24 hours) intravenous, 4 animals irradiated (900cGy)): 0
- % Starting Body Weight at 50 days ([2]; PLNC 5 × 10^6 + ACTIMID pre-treatment intravenous): 102%
- # of Animals Dead at 50 days ([2]; UCBNC 10 × 10^6 + ACTIMID pre-treatment intravenous, 3 animals irradiated (900cGy)): 0
- % Starting Body Weight at 50 days ([2]; UCBNC 10 × 10^6 + ACTIMID pre-treatment intravenous): 84%
- level of annexin V+-PI− (early apoptosis) and annexin V+-PI+ (late apoptosis) populations [3]: no significant increase
